# Laboratory results taken from patent publication US11559497B2 (Guangzhou Dazhou Biomedicine Ltd., priority 2020, dated 2023).
# Assays:
# [1] = test system: patients; details: cited from earlier work
# [2] = cited from earlier work
# [3] = Phase 1 clinical study: plasma pharmacokinetics after ketamine transdermal patch; details: for AUC / AUC(0-inf) / Cmax / half-life / Tmax: human, plasma, other: transdermal patch; for AUC(0-inf): AUCinf
# Procedure: Enrollment was planned to achieve participation of up to 14 adult subjects with MDD in the 3 stages of the protocol. Subjects were to be screened within 4 weeks of enrollment. Eligible subjects who provided written consent were to be enrolled into Stage 1 of the study. In Stage 1 of the study, subjects were to receive the low-dose transdermal patch. The amount of residual drug was to be measured and PK analysis conducted for each subject to inform the subsequent dosing. In Stage 2, after a 2 to 4 week washout period, a placebo patch was to be administered. A “deception” protocol was used in order to ensure the subjects remained blinded to the treatment. Placebo administration was followed by a 1 week washout period, after which subjects were to receive the high-dose transdermal patch in Stage 3. The overall study duration from screening until the end of Stage 3 was approximately 60 days, including both inpatient and outpatient portions of the study. The general study design is illustrated in FIG. 3.
# The patch was predicted to deliver systemically approximately 20 mg.
# For Stage 1, blood samples were collected pre-patch application, and at 2, 6, 12, 24, 28, 32, 48, 96, and 168 hours post-patch application.
# Blood samples were collected in tubes containing sodium heparin and stored on ice or room temperature until centrifuged under refrigeration or room temperature for at least 10 minutes at 3,000 revolutions per minute. After centrifugation, plasma was removed, divided into 2 aliquots of approximately 0.6 mL each, frozen, and stored at or below −20° C. Blood was processed to plasma and frozen within 1 hour of collection. Processed frozen plasma samples were transferred on dry ice to the analytical laboratory and were stored at or below −20° C. until bioanalysis was performed.
# A non-compartmental analysis (NCA) was used to calculate PK parameters using Phoenix® WinNonlin® 6.4 or later (Certara, USA).
# [4] = test system: subjects diagnosed with major depressive disorder (MDD); assay: Phase 1 clinical study: safety; type: in vivo, human
# Description: Safety data included adverse events (AEs), concomitant medications, PE, vital signs (VS), ECGs, clinical laboratory results, other safety measures based on questionnaires (Clinician-Administered Dissociative States Scale [CADSS], Observer's Assessment of Alertness/Sedation Scale [OAA/S], Brief Psychiatric Rating Scale [BPRS]), and the emergence of suicidality based on the suicidal ideation and suicidal behavior ratings of the Columbia-Suicide Severity Rating Scale (C-SSRS). Safety summaries and analyses were performed on the Safety Population and were presented by treatment. Observed data was summarized using counts and percentages for discrete variables and means, SD, median, inter-quartile range (25th-75th percentile), minimum, and maximum for continuous measures.
# [5] = Stage 1: Ketamine Low-Dose (N = 18)
# [6] = Stage 3: Ketamine High-Dose (N = 12)
structure (smiles),measurement,setting,value
"CNC1(c2ccccc2Cl)CCCCC1=O (racemic) [Ketamine, ketamine]",time after which side effects typically resolved,[1]; 0.5 mg/kg 40 minutes IV infusion,about 2 hours
same,duration of antidepressant effect after single dose,[1]; IV infusion or intranasal spray,about 3 days
same,reduction of opioid consumption,"[1]; low-dose IV, perioperative pain, meta-analysis",40%
same,absolute oral bioavailability,[2]; humans,10-20%
same,systemic (primarily hepatic) clearance,[2]; in vivo,about 19 ml/min·kg
same,plasma concentration,[3]; 96 hours post dose,minimal values
same,plasma concentration,[3]; 168 hours post dose,below quantification limit
same,Extrap,"[3]; Stage 1, Mean",6%
same,Extrap,"[3]; Stage 1, Median",6%
same,Extrap,"[3]; Stage 3, Mean",4%
same,Extrap,"[3]; Stage 3, Median",3%
same,AUC,"[3]; 20 mg, AUCall, Stage 1 (60 cm^2 patch, 24 h, low-dose), Mean",284 ng·h/mL
same,AUC,"[3]; 20 mg, AUCall, Stage 1 (60 cm^2 patch, 24 h, low-dose), Median",280 ng·h/mL
same,AUC(0-inf),"[3]; 20 mg, Stage 1, Mean",299 ng·h/mL
same,AUC(0-inf),"[3]; 20 mg, Stage 1, Median",274 ng·h/mL
same,Cmax,"[3]; 20 mg, Stage 1, Mean",~10.3 ng/mL
same,Cmax,"[3]; 20 mg, Stage 1, Median",9.92 ng/mL
same,half-life,"[3]; 20 mg, T1/2, Stage 1, Mean",13.2 h
same,half-life,"[3]; 20 mg, T1/2, Stage 1, Median",13.7 h
same,Tmax,"[3]; 20 mg, Stage 1, Mean",27.1 h
same,Tmax,"[3]; 20 mg, Stage 1, Median",28 h
same,AUC,"[3]; 20 mg, average AUC of ketamine per cm^2 patch over 24 hours, Stage 1",3.62 ng·h/mL
same,AUC,"[3]; 40 mg, AUCall, Stage 3 (20 and 60 cm^2 patches, high-dose), Mean",393 ng·h/mL
same,AUC,"[3]; 40 mg, AUCall, Stage 3 (20 and 60 cm^2 patches, high-dose), Median",339 ng·h/mL
same,AUC(0-inf),"[3]; 40 mg, Stage 3, Mean",423 ng·h/mL
same,AUC(0-inf),"[3]; 40 mg, Stage 3, Median",362 ng·h/mL
same,Cmax,"[3]; 40 mg, Stage 3, Mean",~14.4 ng/mL
same,Cmax,"[3]; 40 mg, Stage 3, Median",9.67 ng/mL
same,half-life,"[3]; 40 mg, T1/2, Stage 3, Mean",13.8 h
same,half-life,"[3]; 40 mg, T1/2, Stage 3, Median",14.9 h
same,Tmax,"[3]; 40 mg, Stage 3, Mean",27 h
same,Tmax,"[3]; 40 mg, Stage 3, Median",28 h
same,AUC,"[3]; 40 mg, average AUC of ketamine per cm^2 patch over 24 hours, Stage 3",4.17 ng·h/mL
same,overall safety and tolerability,[4]; 20 mg and 40 mg doses,generally safe and well tolerated
same,"At least 1 TEAE, # of Events",[4]; [5],3
same,"At least 1 TEAE, n (%)",[4]; [5],3 (16.7) n (%)
same,"Cardiac disorders, # of Events",[4]; [5],0
same,"Cardiac disorders, n (%)",[4]; [5],0 n (%)
same,"Contusion, # of Events",[4]; [5],1
same,"Contusion, n (%)",[4]; [5],1(5.6) n (%)
same,"Depression, # of Events",[4]; [5],0
same,"Depression, n (%)",[4]; [5],0 n (%)
same,"Dermatitis, # of Events",[4]; [5],0
same,"Dermatitis, n (%)",[4]; [5],0 n (%)
same,"Diarrhoea, # of Events",[4]; [5],1
same,"Diarrhoea, n (%)",[4]; [5],1(5.6) n (%)
same,"Erythema, # of Events",[4]; [5],0
same,"Erythema, n (%)",[4]; [5],0 n (%)
same,"Gastrointestinal disorders, # of Events",[4]; [5],1
same,"Gastrointestinal disorders, n (%)",[4]; [5],1 (5.6) n (%)
same,"Headache, # of Events",[4]; [5],0
same,"Headache, n (%)",[4]; [5],0 n (%)
same,"Infections and infestations, # of Events",[4]; [5],0
same,"Infections and infestations, n (%)",[4]; [5],0 n (%)
same,"Injury, poisoning, and procedural complications, # of Events",[4]; [5],1
same,"Injury, poisoning, and procedural complications, n (%)",[4]; [5],1 (5.6) n (%)
same,"Nervous system disorders, # of Events",[4]; [5],1
same,"Nervous system disorders, n (%)",[4]; [5],1 (5.6) n (%)
same,"Psychiatric disorders, # of Events",[4]; [5],0
same,"Psychiatric disorders, n (%)",[4]; [5],0 n (%)
same,"Skin and subcutaneous tissue disorders, # of Events",[4]; [5],0
same,"Skin and subcutaneous tissue disorders, n (%)",[4]; [5],0 n (%)
same,"Somnolence, # of Events",[4]; [5],1
same,"Somnolence, n (%)",[4]; [5],1 (5.6) n (%)
same,"Swelling face, # of Events",[4]; [5],0
same,"Swelling face, n (%)",[4]; [5],0 n (%)
same,"Tachycardia, # of Events",[4]; [5],0
same,"Tachycardia, n (%)",[4]; [5],0 n (%)
same,"Urinary tract infection, # of Events",[4]; [5],0
same,"Urinary tract infection, n (%)",[4]; [5],0 n (%)
same,"At least 1 TEAE, # of Events",[4]; [6],5
same,"At least 1 TEAE, n (%)",[4]; [6],4 (33.3) n (%)
same,"Cardiac disorders, # of Events",[4]; [6],0
same,"Cardiac disorders, n (%)",[4]; [6],0 n (%)
same,"Contusion, # of Events",[4]; [6],1
same,"Contusion, n (%)",[4]; [6],1 (8.3) n (%)
same,"Depression, # of Events",[4]; [6],1
same,"Depression, n (%)",[4]; [6],1 (8.3) n (%)
same,"Dermatitis, # of Events",[4]; [6],0
same,"Dermatitis, n (%)",[4]; [6],0 n (%)
same,"Diarrhoea, # of Events",[4]; [6],0
same,"Diarrhoea, n (%)",[4]; [6],0 n (%)
same,"Erythema, # of Events",[4]; [6],1
same,"Erythema, n (%)",[4]; [6],1 (8.3) n (%)
same,"Gastrointestinal disorders, # of Events",[4]; [6],0
same,"Gastrointestinal disorders, n (%)",[4]; [6],0 n (%)
same,"Headache, # of Events",[4]; [6],1
same,"Headache, n (%)",[4]; [6],1 (8.3) n (%)
same,"Infections and infestations, # of Events",[4]; [6],0
same,"Infections and infestations, n (%)",[4]; [6],0 n (%)
same,"Injury, poisoning, and procedural complications, # of Events",[4]; [6],1
same,"Injury, poisoning, and procedural complications, n (%)",[4]; [6],1 (8.3) n (%)
same,"Nervous system disorders, # of Events",[4]; [6],1
same,"Nervous system disorders, n (%)",[4]; [6],1 (8.3) n (%)
same,"Psychiatric disorders, # of Events",[4]; [6],1
same,"Psychiatric disorders, n (%)",[4]; [6],1 (8.3) n (%)
same,"Skin and subcutaneous tissue disorders, # of Events",[4]; [6],2
same,"Skin and subcutaneous tissue disorders, n (%)",[4]; [6],1 (8.3) n (%)
same,"Somnolence, # of Events",[4]; [6],0
same,"Somnolence, n (%)",[4]; [6],0 n (%)
same,"Swelling face, # of Events",[4]; [6],1
same,"Swelling face, n (%)",[4]; [6],1 (8.3) n (%)
same,"Tachycardia, # of Events",[4]; [6],0
same,"Tachycardia, n (%)",[4]; [6],0 n (%)
same,"Urinary tract infection, # of Events",[4]; [6],0
same,"Urinary tract infection, n (%)",[4]; [6],0 n (%)
same,OAA/S change from baseline composite score between treatments,[4]; any timepoint,No significant differences
same,TEAEs considered possibly related to the study drug,[4]; headache and diarrhoea,2
same,PR interval or QTcB interval,"[4]; human, in vivo",No trends in mean change from baseline
same,"SBP, DBP, oxygen saturation, temperature","[4]; human, in vivo",No notable mean changes from baseline
same,adverse reactions at the patch application site,"[4]; human, in vivo",no adverse reactions noted at the patch application site
same,deaths or SAEs,"[4]; human, in vivo",no deaths or SAEs
same,laboratory parameters,"[4]; human, in vivo",no clinically significant abnormal trends
same,severe TEAEs,"[4]; human, in vivo",no severe TEAEs
same,respiratory rate and HR,[4]; ketamine high dose,a decrease in mean respiratory rate and an increase in HR compared to baseline
same,"BPRS, BPRS-Positive subscale, CADSS total score post-patch application",[4]; low-dose or high-dose,"no increase in the total score of the BPRS, the BPRS-Positive subscale, or the CADSS"
same,TEAEs considered probably related to the study drug,[4]; somnolence,1
